Experimental data from PubChem BioAssay AID1963981 (Molecular Pharmacology Branch, DTP, NCI, 2024).
Blank lines part the entries; values can stand above or below the compound they belong to.

System: 354836-022-R-J1-PDC multicell spheroid viability
Assay: Anticancer human tumor 354836-022-R-J1-PDC patient-derived head and neck squamous cell carcinoma cell line growth inhibition [PI3K]
Settings: for IC50: curve of first compound; for viability, T/C: stronger effect = lower value
Text: Combinatorial screen of targeted agents with the PI3K inhibitors inavolisib, alpelisib, duvelisib, and copanlisib in multi-cell type tumor spheroids
A high-throughput screen of multi-cell type tumor spheroids was designed to identify active combinations of targeted small molecules and PI3K pathway inhibitors. Complex spheroids include a stromal component modeled by human endothelial cells (HUVEC) and fibroblasts modeled by human mesenchymal stem cells (MSCs). The concentration ranges selected for each drug and investigational agent were based upon clinically achievable concentrations if the clinical Cmax of the agent was known.
Compounds. The drugs and investigational agents: inavolisib (NSC800729), alpelisib (NSC765974), duvelisib (NSC772469), copanlisib (NSC816437), ipatasertib (NSC767898), afuresertib (NSC778305), talazoparib (NSC767125), sapanisertib (NSC764658), selumetinib (NSC741078), tovorafenib (DAY101, NSC766906), vemurafenib (NSC761431), ravoxertinib (NSC781343), sotorasib (NSC818433), MRTX1133 (NSC 836407), abemaciclib (NSC 768073), palbociclib (NSC758247), venetoclax (NSC 766270), SY5609 (NSC837396), enzalutamide (NSC755605), and darolutamide (NSC825331), were obtained from the National Cancer Institute (NCI) Developmental Therapeutics Program Chemical Repository. The FDA-approved anticancer drug set is available from the NCI Developmental Therapeutics Program. […] The stock solutions were prepared in dimethyl sulfoxide (DMSO, Sigma-Aldrich, St. Louis, MO, cat. D2650) at 800-fold the tested concentration and stored at -70 degrees C prior to their use. All drugs and investigational agents were tested over a range starting from a high concentration at or near the clinical Cmax and decreasing in half-log increments. If the clinical Cmax for an agent had not been determined, the highest concentration tested was 10 microM.
Cell Culture. All cells were maintained in an incubator at 37 degrees C and 5% CO2 with 95% humidity. The PDC lines were cultured according to standard operating procedures established by the NCI PDMR (https://pdmr.cancer.gov/sops/default.htm). All PDCs were thawed and cultured in Matrigel-coated flasks prepared with a working solution of 1X Ham's F-12 nutrient mix, without supplementation (Invitrogen, Waltham, MA, cat. 11765054), 100 U/mL penicillin-streptomycin (Invitrogen, cat. 15140122), and 2.5% Matrigel (Corning Inc., Corning, NY, cat. 354248) for the first three passages. The 354836-022-R-J1-PDC, 475296-252-R-J1-PDC, and 997726-040-R-J2-PDC lines were cultured in 6A media, which includes advanced DMEM/F-12 (Thermo Fisher Scientific, cat. 12634028), 10 mM HEPES (Thermo Fisher Scientific, cat. 15630080), 1X GlutaMAX supplement (Thermo Fisher Scientific, cat. 35050061), 0.1 mg/mL primocin (InvivoGen, San Diego, CA, cat. ant-pm-2), 10% defined fetal bovine serum, heat inactivated (HyClone Laboratories Inc., Logan, UT, cat. SH30070.03HI), 50% L-WRN conditioned media (ATCC, cat. CRL-3276), 1.25 mM N-Acetyl-L-cysteine (Sigma-Aldrich, cat. A9165), 10 mM nicotinamide (Sigma-Aldrich, cat. N0636), 1X B-27 supplement (Thermo Fisher Scientific, cat. 17504044), 1X N-2 supplement (Thermo Fisher Scientific, cat. 17502048), and 10 microM Y-27632 dihydrochloride (Tocris Bioscience, Bristol, United Kingdom, cat. 1254). The 624824-186-R-J2-PDC line was cultured in 6C/Colon 1B media, which includes all 6A media components plus 50 ng/mL human EGF recombinant protein (Thermo Fisher Scientific, cat. PHG0311). […]

[1] = second compound 0.0316 µM, first compound 0.0316 µM
[2] = second compound 0.0316 µM, first compound 0.1 µM
[3] = second compound 0.0316 µM, first compound 0.316 µM
[4] = second compound 0.0316 µM, first compound 1 µM
[5] = second compound 0.0316 µM, first compound 3.16 µM
[6] = second compound 0.0316 µM, first compound 10 µM
[7] = second compound 0.1 µM, first compound 0.0316 µM
[8] = second compound 0.1 µM, first compound 0.1 µM
[9] = second compound 0.1 µM, first compound 0.316 µM
[10] = second compound 0.1 µM, first compound 1 µM
[11] = second compound 0.1 µM, first compound 3.16 µM
[12] = second compound 0.1 µM, first compound 10 µM
[13] = second compound 0.316 µM, first compound 0.0316 µM
[14] = second compound 0.316 µM, first compound 0.1 µM
[15] = second compound 0.316 µM, first compound 0.316 µM
[16] = second compound 0.316 µM, first compound 1 µM
[17] = second compound 0.316 µM, first compound 3.16 µM
[18] = second compound 0.316 µM, first compound 10 µM
[19] = second compound 1 µM, first compound 0.0316 µM
[20] = second compound 1 µM, first compound 0.1 µM
[21] = second compound 1 µM, first compound 0.316 µM
[22] = second compound 1 µM, first compound 1 µM
[23] = second compound 1 µM, first compound 3.16 µM
[24] = second compound 1 µM, first compound 10 µM
[25] = second compound 3.16 µM, first compound 0.0316 µM
[26] = second compound 3.16 µM, first compound 0.1 µM
[27] = second compound 3.16 µM, first compound 0.316 µM
[28] = second compound 3.16 µM, first compound 1 µM
[29] = second compound 3.16 µM, first compound 3.16 µM
[30] = second compound 3.16 µM, first compound 10 µM
[31] = second compound 10 µM, first compound 0.0316 µM
[32] = second compound 10 µM, first compound 0.1 µM
[33] = second compound 10 µM, first compound 0.316 µM
[34] = second compound 10 µM, first compound 1 µM
[35] = second compound 10 µM, first compound 3.16 µM
[36] = second compound 10 µM, first compound 10 µM
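Note: spheroids exposed to agents for seven days before the viability read.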

IC50 (second compound 0.0316 µM): > 10 µM
IC50 (second compound 0.1 µM): > 10 µM
IC50 (second compound 0.316 µM): > 10 µM
IC50 (second compound 1 µM): > 10 µM
IC50 (second compound 3.16 µM): > 10 µM
IC50 (second compound 10 µM): > 10 µM
Structure (SMILES): CNC(=O)c1ccc(N2C(=S)N(c3ccc(C#N)c(C(F)(F)F)c3)C(=O)C2(C)C)cc1F + CC(Nc1ncnc2nc[nH]c12)c1cc2cccc(Cl)c2c(=O)n1-c1ccccc1
viability, T/C [1]: 97.4%
viability, T/C [2]: 99.1%
viability, T/C [3]: 92.9%
viability, T/C [4]: 93%
viability, T/C [5]: 109%
viability, T/C [6]: 95.8%
viability, T/C [7]: 95.2%
viability, T/C [8]: 113%
viability, T/C [9]: 109%
viability, T/C [10]: 104%
viability, T/C [11]: 94.4%
viability, T/C [12]: 93.8%
viability, T/C [13]: 100%
viability, T/C [14]: 97.8%
viability, T/C [15]: 97.6%
viability, T/C [16]: 109%
viability, T/C [17]: 105%
viability, T/C [18]: 91.5%
viability, T/C [19]: 97%
viability, T/C [20]: 92.4%
viability, T/C [21]: 95.9%
viability, T/C [22]: 117%
viability, T/C [23]: 93.6%
viability, T/C [24]: 95%
viability, T/C [25]: 105%
viability, T/C [26]: 106%
viability, T/C [27]: 105%
viability, T/C [28]: 108%
viability, T/C [29]: 85.2%
viability, T/C [30]: 95.5%
viability, T/C [31]: 89.3%
viability, T/C [32]: 86.5%
viability, T/C [33]: 94.5%
viability, T/C [34]: 97%
viability, T/C [35]: 95.3%
viability, T/C [36]: 86.6%

IC50 (second compound 0.0316 µM): > 10 µM
IC50 (second compound 0.1 µM): > 10 µM
IC50 (second compound 0.316 µM): > 10 µM
IC50 (second compound 1 µM): > 10 µM
IC50 (second compound 3.16 µM): > 10 µM
IC50 (second compound 10 µM): > 10 µM
Structure (SMILES): Cn1nccc1Nc1nccc(-c2ccn(C(CO)c3ccc(Cl)c(F)c3)c(=O)c2)n1 (centres undefined) + CC(Nc1ncnc2nc[nH]c12)c1cc2cccc(Cl)c2c(=O)n1-c1ccccc1
viability, T/C [1]: 107%
viability, T/C [2]: 107%
viability, T/C [3]: 103%
viability, T/C [4]: 94.9%
viability, T/C [5]: 89.3%
viability, T/C [6]: 90.5%
viability, T/C [7]: 108%
viability, T/C [8]: 110%
viability, T/C [9]: 94.3%
viability, T/C [10]: 104%
viability, T/C [11]: 91.2%
viability, T/C [12]: 96.4%
viability, T/C [13]: 113%
viability, T/C [14]: 93.5%
viability, T/C [15]: 87.2%
viability, T/C [16]: 106%
viability, T/C [17]: 100%
viability, T/C [18]: 94.9%
viability, T/C [19]: 117%
viability, T/C [20]: 95.5%
viability, T/C [21]: 111%
viability, T/C [22]: 118%
viability, T/C [23]: 101%
viability, T/C [24]: 78.2%
viability, T/C [25]: 94.4%
viability, T/C [26]: 91.6%
viability, T/C [27]: 99.3%
viability, T/C [28]: 97.3%
viability, T/C [29]: 107%
viability, T/C [30]: 88.1%
viability, T/C [31]: 88.3%
viability, T/C [32]: 103%
viability, T/C [33]: 95.3%
viability, T/C [34]: 85.4%
viability, T/C [35]: 94%
viability, T/C [36]: 76.1%
